Key:
[1] = target: T1, Gloeobacter rhodopsin (GR, Gloeorhodopsin) (Gloeobacter violaceus, UniProt Q7NP59); experiment: UV/VIS absorption of purified pigment; type: binding; settings: covalent (protonated Schiff base, Lys257); 50 mM Tris pH 7, 150 mM NaCl, 0.02% DDM
T1 construct: gene gll0198

[2] = target: Asp121 (UniProt position 121, AYRYVDWLLTV); experiment: UV-vis; settings: 3-mix buffer (starting at pH ca. 12, adjusted downward with HCl); retinal-bound pigment, unphotolysed state; light or dark adaptation not stated

T1 sequence (Q7NP59 entry or part of it): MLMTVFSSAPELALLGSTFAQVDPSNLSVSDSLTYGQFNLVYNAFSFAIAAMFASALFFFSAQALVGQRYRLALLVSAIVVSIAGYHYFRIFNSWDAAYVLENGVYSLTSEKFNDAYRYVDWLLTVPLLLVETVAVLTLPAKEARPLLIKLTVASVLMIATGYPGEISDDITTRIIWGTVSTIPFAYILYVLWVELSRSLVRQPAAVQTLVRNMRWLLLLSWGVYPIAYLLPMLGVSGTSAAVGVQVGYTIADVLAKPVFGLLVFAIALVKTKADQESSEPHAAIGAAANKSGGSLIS

Row | Compound | UV/VIS absorption of purified pigment [1] | pKa [2]
1 | CC1=C(/C=C/C(C)=C/C=C/C(C)=C/C=O)C(C)(C)CCC1 [all-trans retinal] | expressed in Escherichia coli and bound all-trans retinal to form a pigment | –
2 | Gloeobacter rhodopsin (GR, Gloeorhodopsin) (Gloeobacter violaceus PCC 7421) | – | 5.9
